The assay deals with HPK1 (Homo sapiens (Human), UniProt Q92918). Nature of the assay: HPK1 Kinase Binding Assay. The method in brief: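 Active HPK1 (added as 4 nM solution) was combined with compound (3-fold, 11-point series) and tracer 222 (18 nM) plus Eu-anti-GST antibody (4 nM) in 50 mM HEPES pH 7.5 with MgCl2 and DTT. After 1 h at 25 °C plates were read. Ki values were derived.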

Each structure is given as a SMILES string. Where only a bound is given, the exact number is not on record here.

HPK1, sequence (Q92918 1-346): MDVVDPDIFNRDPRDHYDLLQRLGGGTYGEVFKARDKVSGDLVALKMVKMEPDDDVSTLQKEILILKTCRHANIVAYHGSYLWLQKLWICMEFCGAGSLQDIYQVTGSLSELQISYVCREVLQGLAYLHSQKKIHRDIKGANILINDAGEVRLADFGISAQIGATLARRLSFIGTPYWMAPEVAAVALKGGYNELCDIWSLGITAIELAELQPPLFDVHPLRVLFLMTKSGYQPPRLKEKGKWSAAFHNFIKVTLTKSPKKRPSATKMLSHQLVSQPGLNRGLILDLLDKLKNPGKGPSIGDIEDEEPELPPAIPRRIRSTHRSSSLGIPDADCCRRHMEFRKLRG

On to `CN1CCN(c2ccc(-c3n[nH]c4cnc(-c5c(F)cc6c(c5F)C(O)CC6)cc34)cn2)CC1` (stereo not shown) [Example 213, 5,7-Difluoro-6-(3-(6-(4-methylpiperazin-1-yl)pyridin-3-yl)-1H-pyrazolo[3,4-c]pyridin-5-yl)-2,3-dihydro-1H-inden-1-ol], for which the Ki was ≤ 100 nM.
Next, `CNCc1cc(F)c(-c2cc3c(-c4ccc(N5CCN(C)CC5)nc4)n[nH]c3cn2)c(C(F)(F)F)c1` [Example 119, 1-(3-Fluoro-4-(3-(6-(4-methylpiperazin-1-yl)pyridin-3-yl)-1H-pyrazolo[3,4-c]pyridin-5-yl)-5-(trifluoromethyl)phenyl)-N-methylmethanamine]: ≤ 100 nM; `CN1CCN(c2ccc(-c3n[nH]c4cnc(-c5c(F)cccc5F)cc34)cc2)CC1` [Example 44, 5-(2,6-Difluorophenyl)-3-(4-(4-methylpiperazin-1-yl)phenyl)-1H-pyrazolo[3,4-c]pyridine]: ≤ 100 nM.
In the case of `Cc1cc(NC(=O)CN2C[C@H]3CC[C@@H]2C3)cc(F)c1-c1cc2c(-c3cnn(C)c3)n[nH]c2cn1` [Example 83, 2-((1R,4S)-2-Azabicyclo[2.2.1]heptan-2-yl)-N-(3-fluoro-5-methyl-4-(3-(1-methyl-1H-pyrazol-4-yl)-1H-pyrazolo[3,4-c]pyridin-5-yl)phenyl)acetamide], the Ki was ≤ 100 nM.
`Cn1cc(-c2n[nH]c3cnc(-c4c(F)cc(NC(=O)CN5CCCC5)cc4F)cc23)cn1` [Example 64, N-(3,5-Difluoro-4-(3-(1-methyl-1H-pyrazol-4-yl)-1H-pyrazolo[3,4-c]pyridin-5-yl)phenyl)-2-(pyrrolidin-1-yl)acetamide]: the Ki is ≤ 100 nM.
Next, `COc1cccc(F)c1-c1cc2c(NC(=O)c3cccc(N4CCNCC4)c3)n[nH]c2cn1` [Example 23, N-(5-(2-fluoro-6-methoxyphenyl)-1H-pyrazolo[3,4-c]pyridin-3-yl)-3-(piperazin-1-yl)benzamide]: ≤ 100 nM.
On to `COc1cccc(F)c1-c1cc2c(N3CCN(c4ccc(Br)cc4)C(=O)C3)n[nH]c2cn1` [Example 37, 1-(4-Bromophenyl)-4-(5-(2-fluoro-6-methoxyphenyl)-1H-pyrazolo[3,4-c]pyridin-3-yl)piperazin-2-one], for which the Ki was ≤ 100 nM.
As for `CNCc1cc(C)c(-c2cc3c(-c4cccc(N5CCOCC5)n4)n[nH]c3cn2)c(F)c1` [Example 117, 1-(3-Fluoro-5-methyl-4-(3-(6-morpholinopyridin-2-yl)-1H-pyrazolo[3,4-c]pyridin-5-yl)phenyl)-N-methylmethanamine], the Ki was ≤ 100 nM.
`Cn1cc(-c2n[nH]c3cnc(-c4c(F)cc5c(c4F)C(O)CC5)cc23)cn1` (stereo not shown) [Example 212, 5,7-Difluoro-6-(3-(1-methyl-1H-pyrazol-4-yl)-1H-pyrazolo[3,4-c]pyridin-5-yl)-2,3-dihydro-1H-inden-1-ol]: the Ki is ≤ 100 nM.
Next, `COc1cccc(F)c1-c1cc2c(NC(=O)c3cccc(N4CCN(CC(F)(F)F)C(=O)C4)c3)n[nH]c2cn1` [Example 21, N-(5-(2-Fluoro-6-methoxyphenyl)-1H-pyrazolo[3,4-c]pyridin-3-yl)-3-(3-oxo-4-(2,2,2-trifluoroethyl)piperazin-1-yl)benzamide]: ≤ 100 nM; `CCNCc1ccc(F)c(-c2cc3c(-c4cnn(C)c4)n[nH]c3cn2)c1OC` [Example 139, N-(4-Fluoro-2-methoxy-3-(3-(1-methyl-1H-pyrazol-4-yl)-1H-pyrazolo[3,4-c]pyridin-5-yl)benzyl)ethanamine]: ≤ 100 nM.
Next, `CNC1CCc2c1cc(C)c(-c1cc3c(-c4cnn(C)c4)n[nH]c3cn1)c2F` (stereo not shown) [Example 220, 4-Fluoro-N,6-dimethyl-5-(3-(1-methyl-1H-pyrazol-4-yl)-1H-pyrazolo[3,4-c]pyridin-5-yl)-2,3-dihydro-1H-inden-1-amine]: ≤ 100 nM; `COc1cccc(F)c1-c1cc2c(NC(=O)c3cc(F)cc(F)c3)n[nH]c2cn1` [Example 11, 3,5-Difluoro-N-(5-(2-fluoro-6-methoxyphenyl)-1H-pyrazolo[3,4-c]pyridin-3-yl)benzamide]: ≤ 100 nM.

These data come from US10435405B2, “Pyrazolopyridine compounds and uses thereof” (Incyte Corporation, priority 2016, dated 2019).
